Laboratory results: patent publication US6583127B1, “Use of etherlysophospholipids as antiinflammatory agents” (Inkeysa. SA, priority 1998, dated 2003)
pIC50: −log10 of the molar value.

Assays:
[1] = system: CD11b; experiment: Cell surface expression of CD11b in human neutrophils (immunofluorescence flow cytometry); assay type: cell-based; settings: Medium = 100
Text: (§1) Isolation and treatment of neutrophils.
(§2) Monoclonal antibodies. […] The antibodies are commercially available.
(§3) Immunofluorescence flow cytometry. […] Results were expressed as relative MFI (rMFI), such that
(§4) rMFI=(MFIagent×100)/MFImedium
(§5) Background fluorescence was substracted from all values.

[2] = system: CD43; experiment: Cell surface expression of CD43 in human neutrophils (immunofluorescence flow cytometry); assay type: cell-based; settings: Medium = 100
Text: as §1, §2, §3, §4, §5

[3] = system: L-selectin (CD62L); experiment: Cell surface expression of L-selectin in human neutrophils (immunofluorescence flow cytometry); assay type: cell-based; settings: for L-Selectin cell surface expression (rMFI): Medium = 100
Text: as §1, §2, §3, §4, §5

[4] = system: neutrophils; experiment: Toxicity for neutrophils; assay type: cell-based, human
Text: as §1

[5] = system: Mouse bone marrow derived macrophages; experiment: Superoxide anion generation in macrophages (lucigenin chemoluminescent assay); assay type: cell-based; settings: 1 or 3 μg/ml, 24 h; Zymosan-initiated; versus untreated controls (FIG. 2)
Experimental: Mouse bone marrow derived macrophages were incubated for 24 h at 37° C. in MEM+10% FCS to a concentration of 10^6 cells/ml in the absence or presence of ELPs IES01 and IEC01 at the concentration of 1 or 3 μg/ml. The O2^− free radicals were measured in a chemoluminescent assay that detects the photons generated by the reaction of superoxid anions with lucigenin. The liberated photons are counted with a luminometer Microlumat LB96P, Berthold, Wildbad, Germany. Collected macrophages are resuspended in 0.2 ml at a concentration of 10^6/ml in HEPES buffered medium containing 540 μg/ml lucigenin. Superoxid production is initiated by adding 50 mg of Zymosan and the emission of photons is measured with a luminometer for 2 h.

[6] = system: bentonite-induced skin edema in mice; experiment: Bentonite-induced skin edema in mice; assay type: in vivo; settings: for Area (area below the curve of difference between right and left pad diameter) / Inhibition of the inflammatory process: mice; for Inhibition of the inflammatory process: versus inflamed control
Text: Mice were individually identified with an ear code and were kept in groups of 6 per cage (Makrolon: 47.6×22.7×14.5 cm). Each cage was individually labelled with the n^o. of the study, type of treatment, doses used and route of administration, as well as the name of the director of the study, number and gender of contained animals, date of arrival and of the beginning of the experiment.
The animals had free access to mouse standard chow (UAR A04C; Usine d'Alimentation Rationelle, 91360-Villemoisson sur Orge, Francia; lot nos. 70520 and 70722). Drinking water access was ad libitum. The water, supplied by the Compañia de Aguas de Sabadell, S.A., is routinely analysed for the presence of possible contaminants. The temperature in the animal rooms was 22±3° C., with sporadic peaks of 26° C.; air humidity was 60±10%, with sporadic peaks of 80%. Daily light (between 7:00 h and 19:00 h) and dark phases were installed automatically.
Upon arrival, all animals were allowed to rest in the facilities for 8 days before use in the experiment. Table 2 indicates the six random groups of 10 mice each were set for experimentation.
The diameter of both hind pads of all mice was measured at day 0 and set as the basal value. Edema was then induced by injecting s.c. 13.3 mg/ml bentonite in 0.03 ml PBS into the right food pad. The corresponding mice were given daily the different compounds orally for 21 days. The inflamed control group was given 0.2 ml PBS only. The diameter of hind pads, as well as the body weight, was then measured every other day.
In each experimental group the average value, the standard deviation (SD) and the standard error was determined for the two parameters studied (hind pad diameter and body weight). The factor variance analysis (FVA) was used to compare the values obtained in the different groups. Where statistically significant differences were observed, the Duncan-Kramer test for a p<0.05 was applied.
The area below the curves corresponding to the diameters of the right and left pads was calculated and the evolution of the difference between them were plotted (FIGS. 7 and 8). The anti-inflammatory capacity of the different substances was evaluated as the extent of inhibition of the inflammatory process that was calculated with the formula [formula]
where C is the area below the inflammed control group and T the area below the different treatment groups.

[7] = 2.5 mg/kg orally daily for 21 days
[8] = 5 mg/kg orally daily for 21 days

CCCCCCCCCCCCCCCCCCOCC(COP(=O)([O-])OCC[N+](C)(C)C)OC (stereo not drawn) [IEC01, Edelfosine]
CD11b cell surface expression (rMFI) ([1]; 10 ng/ml, rMFI=(MFIagent×100)/MFImedium): 97.5 ± 8.5 | CD11b cell surface expression (rMFI) ([1]; 100 ng/ml): 101 ± 3 | CD11b cell surface expression (rMFI) ([1]; 500 ng/ml): 103 ± 3 | CD11b cell surface expression (rMFI) ([1]; 1 μg/ml): 105 ± 6 | CD11b cell surface expression (rMFI) ([1]; 5 μg/ml): 130 ± 15 | CD43 cell surface expression (rMFI) ([2]; 10 ng/ml): 87.5 ± 2.5 | CD43 cell surface expression (rMFI) ([2]; 100 ng/ml): 63 ± 8 | CD43 cell surface expression (rMFI) ([2]; 500 ng/ml): 53 ± 5 | CD43 cell surface expression (rMFI) ([2]; 1 μg/ml): 33 ± 8 | CD43 cell surface expression (rMFI) ([2]; 5 μg/ml): 28 ± 7 | times more effective than aceclofenac in promoting L-selectin down-regulation ([3]; after correcting for the different molecular weights): 100 times | pIC50 ([3]; converted from μg/ml values, read-out: IC50 for L-selectin down-regulation, corrected for molecular weight): 6.71 | concentration at which L-selectin reduction reaches a maximum ([3]; human neutrophils): 1 µg/mL | IC50 for L-selectin down-regulation ([3]; human neutrophils (FIG. 1)): about 0.1 μg/ml | time for decrease in cell surface L-selectin content to reach a maximum ([3]; human neutrophils (data not shown)): ≤ 5 min | L-Selectin cell surface expression (rMFI) ([3]; human neutrophils, 10 ng/ml): 83.5 ± 4 | L-Selectin cell surface expression (rMFI) ([3]; human neutrophils, 100 ng/ml): 56 ± 6 | L-Selectin cell surface expression (rMFI) ([3]; human neutrophils, 500 ng/ml): 35 ± 5.5 | L-Selectin cell surface expression (rMFI) ([3]; human neutrophils, 1 μg/ml): 18 ± 6 | L-Selectin cell surface expression (rMFI) ([3]; human neutrophils, 5 μg/ml): 22 ± 8 | concentrations toxic for neutrophils [4]: higher than 50 μg/ml | amount of O2− free radicals produced by macrophages (inhibition, in words) [5]: higher | times more efficient in inhibiting inflammation than indomethacin, at the molecular level ([6]; 2.5 mg/kg versus indomethacin 2 mg/kg, taking molecular weights into account): 2 times | Area (area below the curve of difference between right and left pad diameter) [6, 7]: 5.9 ± 0.45 A.U. | Inhibition of the inflammatory process [6, 7]: 23.5% | Area (area below the curve of difference between right and left pad diameter) [6, 8]: 7.0 ± 1.34 A.U. | Inhibition of the inflammatory process [6, 8]: 9.7%
